Measurements: ChEMBL document CHEMBL4804284

Key:
Parameters in all cases: scale not given: the % may be the effect or the level left
[1] = biological target: Interleukin-1 receptor-associated kinase 1 (Homo sapiens) (UniProt P51617); test: Inhibition of DNA-tagged human IRAK1 assessed as percent of control at 50000 nM by qPCR analysis relative to control
[2] = biological target: Insulin-like growth factor 1 receptor (Homo sapiens) (UniProt P08069); test: Inhibition of DNA-tagged human IGF1R assessed as percent of control at 50000 nM by qPCR analysis relative to control
[3] = biological target: Mitogen-activated protein kinase kinase kinase kinase 1 (Homo sapiens) (UniProt Q92918); test: Inhibition of DNA-tagged human HPK1 assessed as percent of control at 50000 nM by qPCR analysis relative to control
[4] = biological target: Rhodopsin kinase GRK7 (Homo sapiens) (UniProt Q8WTQ7); test: Inhibition of DNA-tagged human GRK7 assessed as percent of control at 50000 nM by qPCR analysis relative to control
[5] = tested on: Fibroblast growth factor receptor 3 (Homo sapiens), P22607 [G697C]; test: Inhibition of DNA-tagged human FGFR3 G697C mutant assessed as percent of control at 50000 nM by qPCR analysis relative to control
[6] = biological target: Fibroblast growth factor receptor 2 (Homo sapiens) (UniProt P21802); test: Inhibition of DNA-tagged human FGFR2 assessed as percent of control at 50000 nM by qPCR analysis relative to control
[7] = biological target: Tyrosine-protein kinase Fer (Homo sapiens) (UniProt P16591); test: Inhibition of DNA-tagged human FER assessed as percent of control at 50000 nM by qPCR analysis relative to control
[8] = biological target: Casein kinase I isoform gamma-1 (Homo sapiens) (UniProt Q9HCP0); test: Inhibition of DNA-tagged human CSNK1G1 assessed as percent of control at 50000 nM by qPCR analysis relative to control
Sequence of Casein kinase I isoform gamma-1 (Homo sapiens) (Q9HCP0 whole entry, looked up, canonical isoform): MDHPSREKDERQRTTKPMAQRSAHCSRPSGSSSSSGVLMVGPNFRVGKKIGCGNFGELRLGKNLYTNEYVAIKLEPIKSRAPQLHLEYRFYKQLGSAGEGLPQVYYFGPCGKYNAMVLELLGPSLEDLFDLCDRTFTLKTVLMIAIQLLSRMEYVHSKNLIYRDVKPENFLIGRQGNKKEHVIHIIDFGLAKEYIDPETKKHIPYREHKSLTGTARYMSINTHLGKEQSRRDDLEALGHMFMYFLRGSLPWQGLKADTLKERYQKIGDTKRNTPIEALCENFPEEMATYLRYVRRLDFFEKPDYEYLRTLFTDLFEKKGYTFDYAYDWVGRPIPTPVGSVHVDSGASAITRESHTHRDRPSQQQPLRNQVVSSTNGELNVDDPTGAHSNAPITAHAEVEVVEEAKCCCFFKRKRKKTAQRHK

[9] = biological target: Casein kinase I isoform alpha-like (Homo sapiens) (UniProt Q8N752); test: Inhibition of DNA-tagged human CSNK1A1L assessed as percent of control at 50000 nM by qPCR analysis relative to control
[10] = biological target: Casein kinase I isoform alpha (Homo sapiens) (UniProt P48729); test: Inhibition of DNA-tagged human CSNK1A1 assessed as percent of control at 50000 nM by qPCR analysis relative to control
Sequence of Casein kinase I isoform alpha (Homo sapiens) (P48729 2-337 limits assumed): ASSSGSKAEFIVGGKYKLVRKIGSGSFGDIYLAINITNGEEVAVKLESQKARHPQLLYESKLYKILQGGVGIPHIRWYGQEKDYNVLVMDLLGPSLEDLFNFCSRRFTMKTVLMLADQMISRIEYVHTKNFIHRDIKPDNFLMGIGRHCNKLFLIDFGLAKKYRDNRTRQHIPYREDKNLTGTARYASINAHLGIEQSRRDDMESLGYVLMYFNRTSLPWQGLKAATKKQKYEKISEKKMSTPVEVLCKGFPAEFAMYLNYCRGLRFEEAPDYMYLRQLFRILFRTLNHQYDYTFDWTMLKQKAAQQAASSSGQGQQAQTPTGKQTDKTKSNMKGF

[11] = biological target: Dual specificity protein kinase CLK3 (Homo sapiens) (UniProt P49761); test: Inhibition of DNA-tagged human CLK3 assessed as percent of control at 50000 nM by qPCR analysis relative to control
[12] = biological target: Calcium/calmodulin-dependent protein kinase kinase 1 (Homo sapiens) (UniProt Q8N5S9); test: Inhibition of DNA-tagged human CAMKK1 assessed as percent of control at 50000 nM by qPCR analysis relative to control
[13] = biological target: 5'-AMP-activated protein kinase catalytic subunit alpha-2 (Homo sapiens) (UniProt P54646); test: Inhibition of DNA-tagged human AMPK-alpha2 assessed as percent of control at 50000 nM by qPCR analysis relative to control
Sequence of 5'-AMP-activated protein kinase catalytic subunit alpha-2 (Homo sapiens) (P54646 whole entry, looked up): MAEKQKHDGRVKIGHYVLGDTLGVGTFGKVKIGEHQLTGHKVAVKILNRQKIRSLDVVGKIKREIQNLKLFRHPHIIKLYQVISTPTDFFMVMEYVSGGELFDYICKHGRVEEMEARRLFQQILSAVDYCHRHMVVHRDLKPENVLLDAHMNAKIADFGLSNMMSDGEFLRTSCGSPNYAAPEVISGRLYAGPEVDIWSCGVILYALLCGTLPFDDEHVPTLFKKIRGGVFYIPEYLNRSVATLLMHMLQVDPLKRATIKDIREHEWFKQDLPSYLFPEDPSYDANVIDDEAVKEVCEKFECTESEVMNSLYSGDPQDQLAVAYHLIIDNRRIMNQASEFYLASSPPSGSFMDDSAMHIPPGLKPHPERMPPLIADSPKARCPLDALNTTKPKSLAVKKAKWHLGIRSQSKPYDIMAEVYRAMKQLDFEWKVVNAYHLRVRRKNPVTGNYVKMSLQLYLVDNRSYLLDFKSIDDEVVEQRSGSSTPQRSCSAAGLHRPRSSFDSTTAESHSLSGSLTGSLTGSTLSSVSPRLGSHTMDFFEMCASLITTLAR

[14] = biological target: Activin receptor type-1 (Homo sapiens) (UniProt Q04771); test: Inhibition of DNA-tagged human ACVR1 assessed as percent of control at 50000 nM by qPCR analysis relative to control
Sequence of Activin receptor type-1 (Homo sapiens) (Q04771 whole entry): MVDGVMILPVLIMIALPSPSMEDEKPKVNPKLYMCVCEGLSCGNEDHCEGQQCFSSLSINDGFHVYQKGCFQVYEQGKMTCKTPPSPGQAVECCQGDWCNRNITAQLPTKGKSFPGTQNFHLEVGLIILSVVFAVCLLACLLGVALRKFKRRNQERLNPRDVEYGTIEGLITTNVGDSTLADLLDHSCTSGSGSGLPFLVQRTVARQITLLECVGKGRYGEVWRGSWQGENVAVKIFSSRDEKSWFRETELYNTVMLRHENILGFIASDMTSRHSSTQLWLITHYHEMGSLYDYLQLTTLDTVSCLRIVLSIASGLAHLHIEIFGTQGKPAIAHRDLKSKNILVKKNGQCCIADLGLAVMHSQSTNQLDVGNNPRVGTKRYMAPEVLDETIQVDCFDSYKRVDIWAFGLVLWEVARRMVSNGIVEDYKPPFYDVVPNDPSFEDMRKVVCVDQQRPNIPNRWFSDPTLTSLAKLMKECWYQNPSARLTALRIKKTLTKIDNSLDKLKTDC

[15] = biological target: Tyrosine-protein kinase ABL1 (Homo sapiens) (UniProt P00519); test: Inhibition of DNA-tagged phosphorylated human ABL1 assessed as percent of control at 50000 nM by qPCR analysis relative to control
[16] = tested on: Tyrosine-protein kinase ABL1 (Homo sapiens), P00519 [F317I]; test: Inhibition of DNA-tagged phosphorylated human ABL1 F317I mutant assessed as percent of control at 50000 nM by qPCR analysis relative to control
[17] = biological target: Mitogen-activated protein kinase kinase kinase kinase 4 (Homo sapiens) (UniProt O95819); test: Inhibition of DNA-tagged human MAP4K4 assessed as percent of control at 50000 nM by qPCR analysis relative to control
[18] = biological target: Dual specificity mitogen-activated protein kinase kinase 2 (Homo sapiens) (UniProt P36507); test: Inhibition of DNA-tagged human MEK2 assessed as percent of control at 50000 nM by qPCR analysis relative to control
[19] = biological target: Macrophage-stimulating protein receptor (Homo sapiens) (UniProt Q04912); test: Inhibition of DNA-tagged human MST1R assessed as percent of control at 50000 nM by qPCR analysis relative to control
[20] = biological target: Myosin-IIIb (Homo sapiens) (UniProt Q8WXR4); test: Inhibition of DNA-tagged human MYO3B assessed as percent of control at 50000 nM by qPCR analysis relative to control
Sequence of Myosin-IIIb (Homo sapiens) (Q8WXR4 whole entry): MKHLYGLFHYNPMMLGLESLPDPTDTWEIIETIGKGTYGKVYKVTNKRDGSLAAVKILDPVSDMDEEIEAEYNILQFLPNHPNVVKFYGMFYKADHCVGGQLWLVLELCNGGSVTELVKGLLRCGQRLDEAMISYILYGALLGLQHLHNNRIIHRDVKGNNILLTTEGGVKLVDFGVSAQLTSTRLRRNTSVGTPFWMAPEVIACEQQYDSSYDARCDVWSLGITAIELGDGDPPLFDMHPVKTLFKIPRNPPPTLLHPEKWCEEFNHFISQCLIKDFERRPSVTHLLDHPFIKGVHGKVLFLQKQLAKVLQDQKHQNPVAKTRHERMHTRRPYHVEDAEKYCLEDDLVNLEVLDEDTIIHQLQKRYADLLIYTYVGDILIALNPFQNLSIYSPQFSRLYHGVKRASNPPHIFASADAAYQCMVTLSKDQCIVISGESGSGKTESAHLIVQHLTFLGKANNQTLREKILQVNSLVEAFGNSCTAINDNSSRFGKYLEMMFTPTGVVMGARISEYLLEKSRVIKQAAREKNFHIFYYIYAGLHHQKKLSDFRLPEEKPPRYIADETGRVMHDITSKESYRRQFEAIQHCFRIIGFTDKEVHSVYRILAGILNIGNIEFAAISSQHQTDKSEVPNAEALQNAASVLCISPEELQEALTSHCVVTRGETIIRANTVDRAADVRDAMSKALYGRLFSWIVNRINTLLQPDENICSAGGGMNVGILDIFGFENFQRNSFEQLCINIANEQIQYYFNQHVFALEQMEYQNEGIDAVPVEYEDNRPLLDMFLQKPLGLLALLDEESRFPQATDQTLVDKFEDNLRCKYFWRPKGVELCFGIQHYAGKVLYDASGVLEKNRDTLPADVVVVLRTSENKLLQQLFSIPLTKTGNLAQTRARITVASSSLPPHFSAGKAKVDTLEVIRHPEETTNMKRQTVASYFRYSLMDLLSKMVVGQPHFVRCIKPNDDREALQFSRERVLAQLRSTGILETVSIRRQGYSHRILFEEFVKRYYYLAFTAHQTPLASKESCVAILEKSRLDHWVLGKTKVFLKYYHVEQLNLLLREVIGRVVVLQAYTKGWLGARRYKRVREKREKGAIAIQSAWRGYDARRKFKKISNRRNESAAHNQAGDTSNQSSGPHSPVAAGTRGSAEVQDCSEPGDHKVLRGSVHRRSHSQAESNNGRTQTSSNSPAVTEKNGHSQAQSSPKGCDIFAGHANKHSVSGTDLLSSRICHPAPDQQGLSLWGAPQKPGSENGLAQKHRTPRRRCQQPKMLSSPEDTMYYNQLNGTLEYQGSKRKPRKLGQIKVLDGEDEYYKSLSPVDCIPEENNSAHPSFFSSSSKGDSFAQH

[21] = biological target: Phosphatidylinositol 5-phosphate 4-kinase type-2 gamma (Homo sapiens) (UniProt Q8TBX8); test: Inhibition of DNA-tagged human PIP5K2C assessed as percent of control at 50000 nM by qPCR analysis relative to control
[22] = biological target: cAMP-dependent protein kinase catalytic subunit alpha (Homo sapiens) (UniProt P17612); test: Inhibition of DNA-tagged human PKAC-alpha assessed as percent of control at 50000 nM by qPCR analysis relative to control
[23] = biological target: Membrane-associated tyrosine- and threonine-specific cdc2-inhibitory kinase (Homo sapiens) (UniProt Q99640); test: Inhibition of DNA-tagged human PKMYT1 assessed as percent of control at 50000 nM by qPCR analysis relative to control
[24] = biological target: Protein kinase C eta type (Homo sapiens) (UniProt P24723); test: Inhibition of DNA-tagged human PRKCH assessed as percent of control at 50000 nM by qPCR analysis relative to control
[25] = biological target: cGMP-dependent protein kinase 1 (Homo sapiens) (UniProt Q13976); test: Inhibition of DNA-tagged human PRKG1 assessed as percent of control at 50000 nM by qPCR analysis relative to control
Sequence of cGMP-dependent protein kinase 1 (Homo sapiens) (Q13976 whole entry): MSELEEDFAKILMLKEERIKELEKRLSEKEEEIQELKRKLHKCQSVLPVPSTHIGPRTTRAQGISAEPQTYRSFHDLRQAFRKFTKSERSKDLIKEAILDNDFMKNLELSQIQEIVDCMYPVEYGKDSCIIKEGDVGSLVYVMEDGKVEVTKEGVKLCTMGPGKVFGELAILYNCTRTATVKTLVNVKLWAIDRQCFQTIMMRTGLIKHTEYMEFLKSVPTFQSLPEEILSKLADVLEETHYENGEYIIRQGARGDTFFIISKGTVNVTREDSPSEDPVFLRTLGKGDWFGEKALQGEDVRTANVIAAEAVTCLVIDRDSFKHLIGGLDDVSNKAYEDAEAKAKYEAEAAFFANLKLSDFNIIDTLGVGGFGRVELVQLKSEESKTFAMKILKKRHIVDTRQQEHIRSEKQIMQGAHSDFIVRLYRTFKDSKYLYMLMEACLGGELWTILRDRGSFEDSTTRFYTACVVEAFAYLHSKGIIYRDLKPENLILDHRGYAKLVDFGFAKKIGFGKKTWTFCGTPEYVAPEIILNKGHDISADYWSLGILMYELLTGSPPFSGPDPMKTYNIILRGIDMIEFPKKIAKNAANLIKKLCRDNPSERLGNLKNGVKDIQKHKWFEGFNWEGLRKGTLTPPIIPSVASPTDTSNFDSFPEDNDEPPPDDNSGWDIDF

[26] = biological target: Tyrosine-protein kinase Tec (Homo sapiens) (UniProt P42680); test: Inhibition of DNA-tagged human TEC assessed as percent of control at 50000 nM by qPCR analysis relative to control
[27] = biological target: Serine/threonine-protein kinase TNNI3K (Homo sapiens) (UniProt Q59H18); test: Inhibition of DNA-tagged human TNNI3K assessed as percent of control at 50000 nM by qPCR analysis relative to control
[28] = biological target: BDNF/NT-3 growth factors receptor (Homo sapiens) (UniProt Q16620); test: Inhibition of DNA-tagged human TRKB assessed as percent of control at 50000 nM by qPCR analysis relative to control
[29] = biological target: Non-receptor tyrosine-protein kinase TYK2 (Homo sapiens) (UniProt P29597); test: Inhibition of DNA-tagged human TYK2 JH1 catalytic domain assessed as percent of control at 50000 nM by qPCR analysis relative to control
Sequence of Non-receptor tyrosine-protein kinase TYK2 (Homo sapiens) (P29597 whole entry, the tested form may be a part): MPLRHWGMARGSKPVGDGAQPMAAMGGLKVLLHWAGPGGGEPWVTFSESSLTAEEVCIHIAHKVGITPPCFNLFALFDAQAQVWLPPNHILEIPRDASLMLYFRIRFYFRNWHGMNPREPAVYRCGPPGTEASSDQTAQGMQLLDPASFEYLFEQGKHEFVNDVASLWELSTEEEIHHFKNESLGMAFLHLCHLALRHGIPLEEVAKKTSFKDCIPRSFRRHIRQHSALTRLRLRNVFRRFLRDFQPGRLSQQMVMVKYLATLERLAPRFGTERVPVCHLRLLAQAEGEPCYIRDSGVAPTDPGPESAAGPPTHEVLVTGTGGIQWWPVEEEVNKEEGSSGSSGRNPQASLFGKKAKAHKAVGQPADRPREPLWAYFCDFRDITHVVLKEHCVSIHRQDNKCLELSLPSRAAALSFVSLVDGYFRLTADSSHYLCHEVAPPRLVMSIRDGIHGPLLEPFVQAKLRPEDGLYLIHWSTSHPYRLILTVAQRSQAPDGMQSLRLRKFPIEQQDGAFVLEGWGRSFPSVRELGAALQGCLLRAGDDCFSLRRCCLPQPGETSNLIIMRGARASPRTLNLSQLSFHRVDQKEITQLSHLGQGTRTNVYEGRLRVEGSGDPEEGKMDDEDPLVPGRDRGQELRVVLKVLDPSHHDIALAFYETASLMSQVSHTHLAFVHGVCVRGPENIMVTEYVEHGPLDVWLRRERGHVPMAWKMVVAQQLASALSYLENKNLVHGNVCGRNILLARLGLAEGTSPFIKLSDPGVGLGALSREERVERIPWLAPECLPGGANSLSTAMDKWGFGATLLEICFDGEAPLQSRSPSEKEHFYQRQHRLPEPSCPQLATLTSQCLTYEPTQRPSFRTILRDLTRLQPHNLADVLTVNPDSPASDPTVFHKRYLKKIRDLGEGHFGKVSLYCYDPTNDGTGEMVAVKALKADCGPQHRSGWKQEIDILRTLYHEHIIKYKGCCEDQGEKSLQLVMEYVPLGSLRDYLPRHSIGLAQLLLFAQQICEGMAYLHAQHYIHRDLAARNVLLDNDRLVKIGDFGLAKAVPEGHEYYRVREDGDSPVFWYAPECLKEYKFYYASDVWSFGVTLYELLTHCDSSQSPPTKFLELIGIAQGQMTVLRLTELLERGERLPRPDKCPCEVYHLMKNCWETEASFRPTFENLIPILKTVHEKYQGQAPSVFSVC

[30] = biological target: Tyrosine-protein kinase Yes (Homo sapiens) (UniProt P07947); test: Inhibition of DNA-tagged human YES assessed as percent of control at 50000 nM by qPCR analysis relative to control

CN1C(=O)/C(=C2/C(=O)Nc3ccccc32)c2ccccc21
Activity [1]: 64% | Activity [2]: 100% | Activity [3]: 93% | Activity [4]: 100% | Activity [5]: 100% | Activity [6]: 89% | Activity [7]: 88% | Activity [8]: 95% | Activity [9]: 97% | Activity [10]: 100% | Activity [11]: 100% | Activity [12]: 86% | Activity [13]: 100% | Activity [14]: 99% | Activity [15]: 96% | Activity [16]: 100% | Activity [17]: 100% | Activity [18]: 89% | Activity [19]: 92% | Activity [20]: 100% | Activity [21]: 55% | Activity [22]: 93% | Activity [23]: 100% | Activity [24]: 100% | Activity [25]: 95% | Activity [26]: 100% | Activity [27]: 95% | Activity [28]: 88% | Activity [29]: 77% | Activity [30]: 86%
